What was measured:
Assay type in all cases: in vivo
Lucilia cuprina larvae = test: Lucilia cuprina test (LUCICU); settings: 48 h, application rate 100 ppm, after 2 d, treated horse meat, read-out: activity (kill in %, larvae)
Procedure: Lucilia cuprina Test (LUCICU) Solvent: dimethyl sulphoxide To produce a suitable preparation of active compound, 1 part by weight of active compound is mixed with the stated amount of water, and the concentrate is diluted with water to the desired concentration. Containers containing horse meat treated with the active compound preparation of the desired concentration are populated with Lucilia cuprina larvae. After the desired period of time, the kill in % is determined 100% means that all larvae have been killed; 0% means that none of the larvae have been killed.

[1] = system: larvae of the mustard beetle (Phaedon cochleariae); test: Phaedon test (PHAECO spray treatment); settings: 168 h, application rate 500 g/ha, after 7 d, read-out: activity (effect in %, beetle larvae killed)
Procedure: Phaedon Test ([…] Spray Treatment) [table] To produce a suitable preparation of active compound, 1 part by weight of active compound is mixed with the stated amounts of solvents and emulsifier, and the concentrate is diluted with emulsifier-containing water to the desired concentration. Discs of chinese cabbage (Brassica pekinensis) are sprayed with an active compound preparation of the desired concentration and, after drying, populated with larvae of the mustard beetle (Phaedon cochleariae). After the desired period of time, the effect in % is determined 100% means that all beetle larvae have been killed; 0% means that none of the beetle larvae have been killed.

[2] = system: caterpillars of the army worm (Spodoptera frugiperda); test: Spodoptera frugiperda test (SPODFR spray treatment); settings: 168 h, application rate 500 g/ha, after 7 d, read-out: activity (effect in %, caterpillars killed)
Procedure: Spodoptera frugiperda Test (SPODFR Spray Treatment) [table] To produce a suitable preparation of active compound, 1 part by weight of active compound is mixed with the stated amounts of solvents and emulsifier, and the concentrate is diluted with emulsifier-containing water to the desired concentration. Discs of maize leaves (Zea mays) are sprayed with an active compound preparation of the desired concentration and, after drying, populated with caterpillars of the army worm (Spodoptera frugiperda). After the desired period of time, the effect in % is determined 100% means that all caterpillars have been killed; 0% means that none of the caterpillars have been killed.

SMILES | pest or weed control at 100 ppm (Lucilia cuprina larvae) | pest or weed control at 500 g/ha [1] | pest or weed control at 500 g/ha [2]
Nc1c(-c2ccc(Cl)cc2)c(C(F)(F)F)nn1-c1ncccn1 [Example 1-6, 4-(4-chlorophenyl)-1-pyrimidin-2-yl-3-(trifluoromethyl)-1H-pyrazole-5-amine] | ≥ 80% | ≥ 80% | ≥ 80%
Nc1c(-c2ccc(Br)cc2)c(C(F)(F)F)nn1-c1ncccn1 [Example 1-9, 4-(4-bromophenyl)-1-pyrimidin-2-yl-3-(trifluoromethyl)-1H-pyrazole-5-amine] | ≥ 80% | ≥ 80% | ≥ 80%
Nc1c(-c2ccc(F)c(Cl)c2)c(C(F)(F)F)nn1-c1ncccn1 [Example 1-79, 4-(3-chloro-4-fluorophenyl)-1-pyrimidin-2-y1-3-(trifluoromethyl)-1H-pyrazole-5-amine] | ≥ 80% | ≥ 80% | ≥ 80%
Nc1c(-c2ccc(Cl)c(Cl)c2)c(C(F)(F)F)nn1-c1ncccn1 [Example 1-80, 4-(3,4-dichlorophenyl)-1-pyrimidin-2-yl-3-(trifluoromethyl)-1H-pyrazole-5-amine] | ≥ 80% | ≥ 80% | ≥ 80%
Nc1c(-c2cc(Cl)cc(C(F)(F)F)c2)c(C(F)(F)F)nn1-c1ncccn1 [Example 3-25, 4-(3-chloro-5-trifluoromethylphenyl)-2-pyrimidin-2-yl-5-trifluoromethyl-2H-pyrazol-3-ylamine] | ≥ 80% | ≥ 80% | ≥ 80%
COc1ccc(-c2c(C(F)(F)F)nn(-c3ncccn3)c2N)cc1 [Example 5-22] | ≥ 80% | ≥ 80% | –
Nc1c(-c2ccc(SC(F)(F)F)cc2)c(C(F)(F)F)nn1-c1ncccn1 [Example 5-62] | ≥ 80% | ≥ 80% | –
CCNc1c(-c2ccc(Cl)cc2)c(C(F)(F)F)nn1-c1ncccn1 [Example 12-7, 4-(4-chlorophenyl)-N-ethyl-l-pyrimidin-2-yl-3-(trifluoromethyl)-1H-pyrazole-5-amine] | ≥ 80% | ≥ 80% | ≥ 80%
FC(F)(F)c1nn(-c2ncccn2)c(Cl)c1-c1ccc(Cl)cc1 [Example 14-7] | ≥ 80% | ≥ 80% | ≥ 80%
CC(=O)N(C(C)=O)c1c(-c2ccc(Cl)c(Cl)c2)c(C(F)(F)F)nn1-c1ncccn1 [Example 29-37, N,N-diacetyl-4-(3,4-dichlorophenyl)-1-pyrimidin-2-yl-3-(trifluoromethyl)-1H-pyrazole-5-amine] | – | ≥ 80% | ≥ 80%

— US20100144672A1, “PYRIMIDINYL PYRAZOLES AS INSECTICIDES AND PARASITICIDE ACTIVE AGENTS” (BAYER CROPSCIENCE AG, priority 2006, published 2010)
